Test results published in US11220483B2, “Tetrahydro-benzo[d]azepine derivatives as GPR120 modulators” (CALDAN THERAPEUTICS LIMITED, priority 2018, dated 2022).

molecular target: T1, human GPR120 (Homo sapiens, UniProt Q5NUL3); test: Human GPR120-β Arrestin 2 BRET agonist assay; format: cell-based; details: HEK293T cells transiently co-expressing hGPR120-eYFP and β-arrestin 2-RLuc; BRET normalised to DMSO (0%) and TUG-891 (100%); read-out: hGPR120 pEC50 (converted)
T1 construct: expressed in transfected cells; host or cells: HEK293T, transient transfection with PEI
T1 sequence (Q5NUL3 1-361): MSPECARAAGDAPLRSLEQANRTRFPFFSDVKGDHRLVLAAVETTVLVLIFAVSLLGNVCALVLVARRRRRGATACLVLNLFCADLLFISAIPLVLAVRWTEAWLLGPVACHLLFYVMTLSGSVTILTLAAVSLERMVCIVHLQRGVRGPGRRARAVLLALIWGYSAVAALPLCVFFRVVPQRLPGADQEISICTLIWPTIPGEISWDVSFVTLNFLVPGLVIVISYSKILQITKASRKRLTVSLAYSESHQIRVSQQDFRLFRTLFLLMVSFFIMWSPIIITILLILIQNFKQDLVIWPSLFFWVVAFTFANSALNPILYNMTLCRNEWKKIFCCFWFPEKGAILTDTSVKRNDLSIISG
Description: pEC50 data was obtained by the following procedure:
Human GPR120-β Arrestin 2 Bio-Luminescence Resonance Energy Transfer (BRET) Agonist Assay Procedure
HEK293T cells were cultured in growth media composed of DMEM L-glutamine media supplemented with 10% (v:v) fetal bovine serum (FBS) and 1% (v:v) 10,000 units penicillin/10 mgml^−1 streptomycin at 37° C., 5% CO2. HEK293T cells transiently co-expressing human GPR120 […] and b-arrestin 2 were generated by transfection with plasmids encoding a construct of hGPR120 […] fused at its C terminal with enhanced yellow fluorescent protein (eYFP), and another encoding β-arrestin 2 fused to Renilla luciferase (RLuc), using Polyethylenimine (PEI) as the transfection reagent.
Transfected cells were cryopreserved in batches for consistency between replicate assays. Twenty-four hours post transfection, cells were harvested with non-enzymatic cell dissociation buffer and re-suspended in DMEM medium supplemented with 10% DMSO and 10% FBS before being transferred first to −80° C. overnight and then to liquid nitrogen for long-term storage. On the day prior to the assay, cells were thawed at 37° C. and re-suspended in growth media. A 96 well white opaque bottom microtitre plate was then seeded with 40,000 cells in a volume of 100 μl growth media per well and seeded plates were then incubated overnight at 37° C., 5% CO2. On the day of the BRET experiment, cells were washed twice with BRET assay buffer (Hanks balanced salt solution (HBSS) supplemented with 10 mM HEPES (pH 7.4)), then 80 μl per well of BRET assay buffer was added before the plate was incubated for 30 minutes at 37° C., 5% CO2. Then, Renilla luciferase substrate coelenterazine h (5 μM) was added to the cells and incubated at 37° C. for 10 minutes before the addition of GPR120 agonist (TUG-891) or test compound for a further 5 minutes at 37° C.
Bio-luminescence at λ 535 nm and λ 475 nm was then measured with a Pherastar FsX instrument, and the λ 535/λ 475 ratio of bio-luminescence was then used to calculate a BRET value. hGPR120 agonist potency values (pEC50) were calculated by normalising the BRET values to the DMSO vehicle (0% control) and TUG-891 (100% control) and then fitting the normalised data to a 3-parameter concentration-response curve.

| SMILES | EC50 [nM] |
| --- | --- |
| CC(C)Oc1cc(F)cc(N2CCc3ccc(CCC(=O)O)cc3CC2)c1 [Compound 49, 3-(3-(3-fluoro-5-isopropoxyphenyl)-2,3,4,5-tetrahydro-1H-benzo[d]azepin-7-yl)propanoic acid] | 398 |
| O=C(O)CCc1ccc2c(c1)CCN(c1cc(F)cc(-c3ccccc3)c1)C2 [Compound 24, 3-(2-(5-fluoro-[1,1′-biphenyl]-3-yl)-1,2,3,4-tetrahydroisoquinolin-6-yl)propanoic acid] | 398 |
| O=C(O)C1CC1c1ccc2c(c1)CCN(c1cc(OC3CCC3)ccc1F)C2 (single isomer, unassigned) [34 isomer 1] | 158 |
| O=C(O)CCc1ccc2c(c1)CCN(c1cc(OC3CCC3)ccc1Cl)C2 [Compound 11, 3-(2-(2-chloro-5-cyclobutoxyphenyl)-1,2,3,4-tetrahydroisoquinolin-6-yl)propanoic acid] | 50.1 |
| O=C(O)C1CC1c1ccc2c(c1)CCN(c1cccc(Oc3ccccc3)c1)C2 (single isomer, unassigned) [38 isomer 1] | 50.1 |
| O=C(O)C1CC1c1ccc2c(c1)CCN(c1cc(OC(F)(F)F)ccc1F)C2 (centres unmarked) [Compound 35, 2-(2-(2-fluoro-5-(trifluoromethoxy)phenyl)-1,2,3,4-tetrahydroisoquinolin-6-yl)cyclopropane-1-carboxylic acid] | 100 |
| O=C(O)C1CC1c1ccc2c(c1)CCN(c1cc(OC3CCC3)ccc1F)C2 (racemic) [Compound 34, 2-(2-(5-cyclobutoxy-2-fluorophenyl)-1,2,3,4-tetrahydroisoquinolin-6-yl)cyclopropanecarboxylic Acid] | 158 |
| O=C(O)CCc1ccc2c(c1)CCN(c1cc(OC(F)(F)F)ccc1F)C2 [Compound 1, 3-(2-(2-Fluoro-5-(trifluoromethoxy)phenyl)-1,2,3,4-tetrahydroisoquinolin-6-yl)propanoic Acid] | 39.8 |
| O=C(O)CCc1ccc2c(c1)CCN(c1cccc(OC(F)(F)F)c1)C2 [Compound 10, 3-(2-(3-(Trifluoromethoxy)phenyl)-1,2,3,4-tetrahydroisoquinolin-6-yl)propanoic Acid] | 158 |
| O=C(O)CCc1ccc2c(c1)CCN(c1cccnc1OC1CCC1)C2 [Compound 5, 3-(2-(2-cyclobutoxypyridin-3-yl)-1,2,3,4-tetrahydroisoquinolin-6-yl)propanoic acid] | 7940 |
| N#Cc1ccc(OC(F)(F)F)cc1N1CCc2cc(CCC(=O)O)ccc2C1 [Compound 6, 3-(2-(2-cyano-5-(trifluoromethoxy)phenyl)-1,2,3,4-tetrahydroisoquinolin-6-yl)propanoic acid] | 79.4 |
| O=C(O)CCc1cc(F)c2c(c1)CCN(c1cccc(Oc3ccccc3)c1)C2 [Compound 41, 3-(8-fluoro-2-(3-phenoxyphenyl)-1,2,3,4-tetrahydroisoquinolin-6-yl)propanoic acid] | 31.6 |
| O=C(O)C1CC1c1ccc2c(c1)CCN(c1cccc(Oc3ccccc3)c1)C2 (centres unmarked) [Compound 38, 2-(2-(3-Phenoxyphenyl)-1,2,3,4-tetrahydroisoquinolin-6-yl)cyclopropanecarboxylic Acid] | 63.1 |
| O=C(O)CCc1ccc2c(c1)CCN(c1cc(Oc3ccccc3)ccc1F)CC2 [Compound 50, 3-(3-(2-fluoro-5-phenoxyphenyl)-2,3,4,5-tetrahydro-1H-benzo[d]azepin-7-yl)propanoic acid] | 25.1 |
| O=C(O)CCc1ccc2c(c1)CCN(c1cc(F)cc(OC3CCC3)c1)C2 [Compound 19, 3-(2-(3-cyclobutoxy-5-fluorophenyl)-1,2,3,4-tetrahydroisoquinolin-6-yl)propanoic acid] | 25.1 |
| O=C(O)CCc1ccc2c(c1)CCN(c1ccnc(C3CC3)n1)C2 [Compound 18, 3-(2-(2-cyclopropylpyrimidin-4-yl)-1,2,3,4-tetrahydroisoquinolin-6-yl)propanoic acid] | 25100 |
| O=C(O)C1CC1c1ccc2c(c1)CCN(c1cc(OC(F)(F)F)ccc1F)CC2 (centres unmarked) [Compound 52, 2-(3-(2-fluoro-5-(trifluoromethoxy)phenyl)-2,3,4,5-tetrahydro-1H-benzo[d]azepin-7-yl)cyclopropanecarboxylic Acid] | 126 |
